From patent US12419307B2, “Mixtures comprising indazole pesticides” (FMC Corporation, priority 2019, dated 2025)

Columns and labels:
Assay type in all cases: in vivo
[1] = test system: Potato Leafhopper (Empoasca fabae Harris); assay: Test C: Potato Leafhopper control on bean plants, insect mortality after 6 days; details: read-out: % Mortality (obs)
Experimental: (§1) The pest control protection afforded by the mixtures or compositions is not limited, however, to these species. The analysis of enhanced activity between the mixtures or compositions was determined using Colby's equation. The average % mortality data for the test compounds alone were inserted into the Colby's equation. If the observed (obs) average % mortality was higher than “p”, the expected (exp) % mortality, the mixture or composition had enhanced effects. If the observed average % mortality was equal to or lower than the expected mortality, the mixture or composition either had no enhanced effect. For bioassays where insect feeding damage was evaluated, enhanced activity is identified when the observed plant damage is less than the expected plant damage rating; ratings ranged between 0 (no damage) and 10 (dead plant) and each value was converted to a % plant protection. 100−(Obs Plant Damage*10)
For evaluating control of Potato Leafhopper (Empoasca fabae Harris) through contact and/or systemic means, each test unit consisted of a small open container with a 5- to 6-day-old Longio bean plant (primary leaves emerged) inside. White sand was added to the top of the soil, and one of the primary leaves was excised prior to application. Test compounds were formulated and sprayed with 3 replications as described for Test A. After spraying, the test units were allowed to dry for 1 hour before they were infested with 5 potato leafhoppers (18- to 21-day-old adults). A black, screened cap was placed on the top of each container. The test units were held for 6 days in a growth chamber at 19-21° C. and 50-70% relative humidity.

[2] = test system: diamondback moth (Plutella xylostella L.); assay: Test E: diamondback moth control on mustard plants, contact and/or systemic, plant damage rating after 6 days
Experimental: as §1
For evaluating control of diamondback moth (Plutella xylostella L.) through contact and/or systemic means, each test unit consisted of a small open container with a 10- to 12-day-old mustard plant inside. Test compounds were formulated and sprayed with 3 replications as described for Test A. After spraying, the test units were allowed to dry for 1 hour before they were infested with 30-50 neonate larvae. A black, screened cap was placed on the top of each container. The test units were held for 6 days in a growth chamber at 24-25° C. and 70% relative humidity. Each test unit was then visually assessed for plant damage and rated 0-10, where 0=undamaged and 10=plant is dead; the results are listed in Tables 6a-b.

[3] = test system: silverleaf whitefly (Bemisia argentifolii Bellows and Perring); assay: Test A: silverleaf whitefly control on cotton or soybean plants, spray, insect mortality after 13 days; details: Bemisia argentifolii, read-out: % Mortality (obs)
Experimental: as §1
For evaluating control of silverleaf whitefly (Bemisia argentifolii Bellows and Perring) through contact and/or systemic means, each test unit consisted of a small open container with a 12- to 14-day-old cotton plant or 5-7 day old soybean plant inside. This was pre-infested by placing test units into cages containing adult whiteflies so that oviposition on the cotton leaves could occur. The adults were removed from the plants with an air-blast nozzle, and the test units were capped. The test units were then stored 2 to 3 days before spraying.
Test compounds were formulated using a solution containing 10% acetone, 90% water and 300 ppm Activator 90@ Spreader Lo-Foam Formula non-ionic surfactant containing alkylarylpolyoxyethylene, free fatty acids, glycols and 2-propanol (Loveland Industries, Inc.) to provide the desired concentration in ppm. Formulated test solutions were then applied in 1 mL volumes through a SUJ2 atomizer nozzle with ⅛ JJ custom body (Spraying Systems Co.) positioned 1.27 cm (0.5 inches) above the top of each test unit.
The results for all experimental compositions in this test were replicated three times. After spraying of the formulated test composition, each test unit was allowed to dry for 1 hour and the cap removed. The test units were held for 13 days in a growth chamber at 28° C. and 50-70% relative humidity.

[4] = test system: cotton melon aphid (Aphis gossypii Glover); assay: Test D: cotton melon aphid control on okra plants, insect mortality after 6 days; details: Aphis gossypii, read-out: % Mortality (obs)
Experimental: The analysis of enhanced activity between the mixtures or compositions was determined using Colby's equation. The average % mortality data for the test compounds alone were inserted into the Colby's equation. If the observed (obs) average % mortality was higher than “p”, the expected (exp) % mortality, the mixture or composition had enhanced effects. If the observed average % mortality was equal to or lower than the expected mortality, the mixture or composition either had no enhanced effect. For bioassays where insect feeding damage was evaluated, enhanced activity is identified when the observed plant damage is less than the expected plant damage rating; ratings ranged between 0 (no damage) and 10 (dead plant) and each value was converted to a % plant protection. 100−(Obs Plant Damage*10)
For evaluating control of cotton melon aphid (Aphis gossypii Glover) through contact and/or systemic means, each test unit consisted of a small open container with a 6- to 7-day-old okra plant inside. This was pre-infested by placing on a leaf of the test plant 30 to 40 aphids on a piece of leaf excised from a culture plant (cut-leaf method). The […] moved onto the test plant as the leaf piece desiccated. After pre-infestation, the soil of the test unit was covered with a layer of sand.
Test compounds were formulated and sprayed as described for Test A. The applications were replicated three times. After spraying of the formulated test compounds, each test unit was allowed to dry for 1 hour and then a black, screened cap was placed on top. […]

[5] = test system: Western Flower Thrips (Frankliniella occidentalis Pergande); assay: Test B: Western Flower Thrips control on bean plants, plant damage rating converted to % plant protection after 7 days; details: for Plant Damage (obs): Table 3a, applied alone
Experimental: as §1
Thus, a plant given a plant damage rating of 3 out of 10 is equivalent to 70% plant protection In all of these tests, compounds of Formula I are Compounds 1 (Cpd 1), 2 (Cpd2), and 3 (Cpd3) and compounds of Formula II are compounds 4 (Cpd4) and 5 (Cpd 5).
For evaluating control of the Western Flower Thrips (Frankliniella occidentalis Pergande) through contact and/or systemic means, each test unit consisted of a small open container with a 5- to 7-day-old bean (var. Soleil) plant inside.
Test solutions were formulated and sprayed with 3 replications as described for Test A. After spraying, the test units were allowed to dry for 1 hour, 22 to 27 adult thrips were added to each unit and then a black, screened cap was placed on top. The test units were held for 7 days at 25° C. and 45-55% relative humidity. To evaluate the level of plant protection provided by each treatment, each test unit was then visually assessed for plant damage inflicted by insect feeding and rated 0-10, where 0=undamaged and 10=plant is dead; the results are listed in Tables 3a-g.

Compound	mortality at 1.75 ppm [1] [%]	mortality at 3.3 ppm [1] [%]	Plant Protection (obs) ([2]; Table 6a, 0.013 ppm)	Plant Protection (obs) ([2]; Table 6a, 0.02 ppm)	mortality at 3 ppm [3] [%]	mortality at 5.5 ppm [3] [%]	mortality at 0.06 ppm [4] [%]	mortality at 0.12 ppm [4] [%]	Plant Damage (obs) ([5]; 0.08 ppm) [%]	Plant Damage (obs) ([5]; 0.28 ppm) [%]	mortality at 50 ppm [1] [%]	mortality at 250 ppm [1] [%]	Plant Protection (obs) ([2]; Table 6b, 83.2 ppm)	Plant Protection (obs) ([2]; Table 6b, 150 ppm)	mortality at 50 ppm [3] [%]	mortality at 250 ppm [3] [%]	mortality at 0.25 ppm ([4]; 120 h) [%]	mortality at 0.85 ppm ([4]; 120 h) [%]	pest or weed control at 100 ppm ([5]; Frankliniella occidentalis, 168 h, Table 3d, 100 ppm, read-out: Plant Protection (obs)) [%]	pest or weed control at 250 ppm ([5]; Frankliniella occidentalis, 168 h, Table 3d, 250 ppm, read-out: Plant Protection (obs)) [%]
CNC(=O)c1cc(C#N)cc(C)c1NC(=O)c1cc(Br)nn1-c1ncccc1Cl [Cyantraniliprole, 3-bromo-1-(3-chloro-2-pyridinyl)-N-[4-cyano-2-methyl-6-[(methylamino)carbonyl]phenyl]-1H-pyrazole-5-carboxamide, reference compound]	13.3	28.6	73.3	20.0	29.1	61.1	21.1	45.1	6.7	43.3										
CCOC(=O)OC1=C(c2cc(C)ccc2C)C(=O)N[C@]12CC[C@@H](OC)CC2 [Spirotetramat, spirotetramat, reference compound]											28.6	73.3	73.3	80.0	2.1	34.4	21.1	45.1	53.3	73.3
